Publication PMC10966741, “Consensus Pharmacophore Strategy For Identifying Novel SARS-Cov-2 M^pro Inhibitors from Large Chemical Libraries” (Journal of Chemical Information and Modeling, 2024)
pIC50: −log10 of the molar value.

Molecular target: SARS-CoV-2 M^pro (main protease; 3CLpro) (Severe acute respiratory syndrome coronavirus 2, UniProt P0DTC1)
Assay: continuous FRET cleavage assay
Format: biochemical

| SMILES | pIC50 |
| --- | --- |
| O=C(Nc1ccccc1-c1nc2ccccc2[nH]1)c1cc(C2CC2)[nH]n1 [compound 5, N-[2-(1H-1,3-benzodiazol-2-yl)phenyl]-5-cyclopropyl-1H-pyrazole-3-carboxamide] | 4.15 |
| Cc1ccc(NC(=O)C2CC(=O)Nc3cc(F)ccc32)c(OCC(F)(F)F)c1 (stereo not drawn) [compound 1, 7-fluoro-N-[4-methyl-2-(2,2,2-trifluoroethoxy)phenyl]-2-oxo-1,2,3,4-tetrahydroquinoline-4-carboxamide] | 4.06 |
| CCOc1cc(C)ccc1NC(=O)C1CC(=O)Nc2ccccc21 (stereo not drawn) [compound 4, N-(2-ethoxy-4-methylphenyl)-2-oxo-1,2,3,4-tetrahydroquinoline-4-carboxamide] | 4.49 |
